According to patent US20260027068A1, “METHODS OF ADM[…]-KETAMINE” (Perception Neuroscience, Inc., priority 2022, published 2026):

Test system: subjects with TRD
Assay: MADRS total score after a single 40-minute IV infusion, double-blind placebo-controlled study in TRD
Assay type: in vivo, human
Details: for Change from Baseline MADRS Total Score, Adjusted mean (SE) / Diff. Adjusted mean (SE) R(−)ketamine - Placebo: MMRM
Protocol: This was a double-blind, randomized, placebo-controlled, multicenter study comprised of 3 phases: screening (up to 2 weeks [day-15 to day-2]), in-clinic treatment (day-1 to day 2; including double-blind treatment [day 1]), and post-treatment follow-up (7 and 14 days after infusion on days 8 and 15, respectively). The study consisted of 3 arms: placebo, R(−)-ketamine solution (30 mg), and R(−)-ketamine solution (60 mg.) A total of 101 adult subjects with TRD were randomly allocated in cohorts of 33-35 subjects/arm to the 3 arms of the study in a blinded manner.
The subjects were randomized within 14 days of screening (Visit 1). Subjects were admitted to the clinic the evening prior to study treatment administration (day-1, Visit 2) and underwent baseline testing to ensure continued study eligibility. Study treatments were infused IV over 40 minutes the next morning (day 1, Visit 2). Starting immediately prior to dosing, subjects were monitored closely for safety.
To determine the efficacy of two doses (30 mg and 60 mg) of intravenous (IV) R(−)-ketamine hydrochloride, the doses were administered as an IV infusion over 40 minutes. These doses are within the range shown to be well-tolerated in a Phase 1 study in healthy volunteers. […] The 10-item clinician-administered MADRS was designed to be used in subjects with MDD to measure the overall severity of depressive symptoms. The MADRS scale is validated, reliable, and acceptable to regulatory health authorities as a primary scale to determine efficacy in major depression.
Population: Subjects with TRD in the full analysis set (FAS) and analyzed according to their randomized treatment. The analysis population includes all randomized subjects who receive any amount of study treatment and have at least one postbaseline assessment available. Variable: Change in total MADRS score from baseline at 24 hours after the start of infusion.
MADRS total score was assessed at 2 and 4 hours, 7 and 14 days after the start of the infusion (days 8 and 15, respectively). Note, for the 2-hour and 4-hour recall periods, the sleep and appetite items were not assessed.
Proportion of subjects with ≥50% improvement in MADRS total score at 24 hours, 7 days, and 14 days after start of infusion (days 8 and 15, respectively).
Proportion of subjects with a MADRS total score≤10 at 24 hours, 7 days, and 14 days after start of infusion (days 8 and 15, respectively).
The 10-item MADRS was administered by the study staff to measure the overall severity of depressive symptoms. The MADRS total score was assessed at screening and baseline (Day 1 pre-dose). The primary efficacy endpoint of improvement in the MADRS total score was evaluated prior to discharge on Day 2 of Visit 2, 24 hours after the start of the infusion of study treatment. The MADRS total score was also assessed at 2 hours, 4 hours, 7 days (on Day 8), and 14 days (on Day 15) after the start of the infusion to evaluate the secondary efficacy endpoints of response (defined as ≥50% improvement in the MADRS total score from pre-dose) and remission (defined as MADRS total score≤10) in the improvement of depressive symptoms in the subjects. While the MADRS is typically used with a 7-day recall period, versions of the MADRS including 2-hour and […] recall periods were used in this study. (For the 2 hour and 4 hour periods, the sleep and appetite items were […]; pre-dose scores for these items obtained on the same day were carried forward).
The change from baseline in MADRS scores was summarized separately by treatment arm for each visit. Associated baseline scores were taken as the last corresponding measurement prior to the first dose of IMP in the treatment period (i.e., Visit 2, pre-dose). The primary endpoint of change from baseline MADRS total score at 24 hours post start of infusion was evaluated using a mixed effects model for repeated measure (MMRM) analysis with observed cases only. […]

[1] = 30 mg, Day 1, 24 hours, primary endpoint

CN[C@@]1(c2ccccc2Cl)CCCCC1=O.Cl [R(−)-ketamine, (2R)-2-(2-chlorophenyl)-2-(methylamino)cyclohexan-1-one]
MADRS total score, Mean (30 mg, 2 hours): 20.7
MADRS total score, Median (30 mg, 2 hours): 21.0
MADRS total score, Mean (30 mg, 4 hours): 19.2
MADRS total score, Median (30 mg, 4 hours): 19.0
MADRS total score, Mean (30 mg, 24 hours (Day 2)): 16.7
MADRS total score, Median (30 mg, 24 hours (Day 2)): 13.0
Not-responder, % (30 mg, Day 1, 2 hours): 72.7%
Responder (>=50% improvement of MADRS total score), % (30 mg, Day 1, 2 hours): (27.3) %
adjusted odds ratio R-ket/placebo (95% CI) (30 mg, Day 1, 2 hours): 1.667 (0.503, 5.520)
Change from Baseline MADRS Total Score, Adjusted mean (SE) (30 mg, Day 1, 2 hours): −9.7 (1.35)
Diff. Adjusted mean (SE) R(−)ketamine - Placebo (30 mg, Day 1, 2 hours): −0.6 (1.85) [−4.24, 3.08]
Not-responder, % (30 mg, Day 1, 4 hours): 72.7%
Responder (>=50% improvement of MADRS total score), % (30 mg, Day 1, 4 hours): (27.3) %
adjusted odds ratio R-ket/placebo (95% CI) (30 mg, Day 1, 4 hours): 0.963 (0.317, 2.928)
Change from Baseline MADRS Total Score, Adjusted mean (SE) (30 mg, Day 1, 4 hours): −11.2 (1.36)
Diff. Adjusted mean (SE) R(−)ketamine - Placebo (30 mg, Day 1, 4 hours): −0.1 (1.86) [−3.81, 3.56]
Not-responder, % (30 mg, Day 1, 24 hours): 42.4%
Responder (>=50% improvement of MADRS total score), % (30 mg, Day 1, 24 hours): (57.6) %
adjusted odds ratio R-ket/placebo (95% CI) (30 mg, Day 1, 24 hours): 1.418 (0.524, 3.837)
Change from Baseline MADRS Total Score, Adjusted mean (SE) [1]: −13.7 (1.75)
Diff. Adjusted mean (SE) R(−)ketamine - Placebo [1]: −0.0 (2.42) [−4.84, 4.77]
MADRS total score, Mean (30 mg, Day 8): 19.9
MADRS total score, Median (30 mg, Day 8): 22.0
Not-responder, % (30 mg, Day 8): 70.0%
Responder (>=50% improvement of MADRS total score), % (30 mg, Day 8): (30.0) %
adjusted odds ratio R-ket/placebo (95% CI) (30 mg, Day 8): 1.040 (0.336, 3.212)
Change from Baseline MADRS Total Score, Adjusted mean (SE) (30 mg, Day 8): −10.4 (1.81)
Diff. Adjusted mean (SE) R(−)ketamine - Placebo (30 mg, Day 8): 1.0 (2.51) [−4.01, 5.94]
MADRS total score, Mean (30 mg, Day 15): 22.8
MADRS total score, Median (30 mg, Day 15): 24.0
Not-responder, % (30 mg, Day 15): 83.9%
Responder (>=50% improvement of MADRS total score), % (30 mg, Day 15): (16.1) %
adjusted odds ratio R-ket/placebo (95% CI) (30 mg, Day 15): 0.621 (0.169, 2.282)
Change from Baseline MADRS Total Score, Adjusted mean (SE) (30 mg, Day 15): −7.5 (1.82)
Diff. Adjusted mean (SE) R(−)ketamine - Placebo (30 mg, Day 15): 2.4 (2.53) [−2.62, 7.40]
MADRS total score change from baseline, Mean (30 mg, to 2 hours): −8.8
MADRS total score change from baseline, Median (30 mg, to 2 hours): −7.0
MADRS total score change from baseline, Mean (30 mg, to 4 hours): −10.4
MADRS total score change from baseline, Median (30 mg, to 4 hours): −10.0
MADRS total score change from baseline, Mean (30 mg, to 24 hours): −12.8
MADRS total score change from baseline, Median (30 mg, to 24 hours): −15.0
MADRS total score change from baseline, Mean (30 mg, to Day 8): −9.8
MADRS total score change from baseline, Median (30 mg, to Day 8): −7.0
MADRS total score change from baseline, Mean (30 mg, to Day 15): −6.6
MADRS total score change from baseline, Median (30 mg, to Day 15): −5.0
MADRS total score, Mean (60 mg, 2 hours): 18.4
